Assay results published in patent US20110015119A1, “NOVEL SEMI-SYNTHETIC GLYCOPEPTIDES AS ANTIBACTERIAL AGENTS” (LEAD THERAPEUTICS, INC., priority 2009, published 2011).
In brackets after ≈: the same amount, converted by molar mass. Like-named read-outs stand apart in the source and are kept apart here.

Legend:
Type in all cases: cell-based
[1] = tested on: Staphylococcus aureus 100 (ATCC 29213); assay: MIC by broth microdilution, SA 100; settings: Staphylococcus aureus, ATCC29213, read-out: MIC SA 100
Method in brief: (§1)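 Clinical isolates, either susceptible or resistant to natural glycopeptides, were tested by broth microdilution in Mueller-Hinton medium as NCCLS recommends.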

[2] = tested on: Staphylococcus aureus 757 (MRSA); assay: MIC by broth microdilution, SA 757; settings: Staphylococcus aureus, MRSA, read-out: MIC SA 757
Method in brief: as §1

[3] = tested on: Staphylococcus aureus 2012 (VISA); assay: MIC by broth microdilution, SA 2012; settings: for MIC: Staphylococcus aureus, VISA, read-out: MIC SA 2012, Staphylococcus aureus 2012 (VISA)
Method in brief: as §1

[4] = tested on: Staphylococcus epidermidis 835; assay: MIC by broth microdilution, SE 835; settings: Staphylococcus epidermidis, 835, read-out: MIC SE 835
Method in brief: as §1

[5] = tested on: Staphylococcus epidermidis 831 (MRSE); assay: MIC by broth microdilution, SE 831; settings: Staphylococcus epidermidis, MRSE, read-out: MIC SE 831
Method in brief: as §1

[6] = tested on: Enterococcus faecalis 101 (ATCC 29212); assay: MIC by broth microdilution, EFc 101; settings: for MIC: Enterococcus faecalis, ATCC29212, read-out: MIC E FC 101, Enterococcus faecalis 101 (ATCC 29212)
Method in brief: as §1

[7] = tested on: Enterococcus faecalis 848 (VRE, Van A); assay: MIC by broth microdilution, EFc 848; settings: Enterococcus faecalis, VRE, read-out: MIC E FC 848, Enterococcus faecalis 848 (VRE, Van A)
Method in brief: as §1

Enterococcus faecium 800 = assay: MIC by broth microdilution, EFcm 800; settings: Enterococcus faecium, 800, read-out: MIC E FCM 800
Method in brief: as §1

[8] = tested on: Enterococcus faecium 752 (VRE, Van A); assay: MIC by broth microdilution, EFcm 752; settings: Enterococcus faecium, VRE, read-out: MIC E FCM 752, Enterococcus faecium 752 (VRE, Van A)
Method in brief: as §1

[9] = tested on: Streptococcus pneumoniae 1195 (ATCC 49619); assay: MIC by broth microdilution, SPNE 1195; settings: Streptococcus pneumoniae, ATCC49619, read-out: MIC S PNE 1195
Method in brief: as §1

[10] = tested on: Streptococcus pyogenes 712; assay: MIC by broth microdilution, SPY 712; settings: Streptococcus pyogenes, 712, read-out: MIC S PYO 712
Method in brief: as §1

Compound | MIC [1] [µg/mL] | MIC [2] [µg/mL] | MIC ([3]; class symbols) [µg/mL] | MIC [4] [µg/mL] | MIC [5] [µg/mL] | MIC ([6]; class symbols) [µg/mL] | MIC ([7]; class symbols) [µg/mL] | MIC (Enterococcus faecium 800) [µg/mL] | MIC ([8]; class symbols) [µg/mL] | MIC [9] [µg/mL] | MIC [10] [µg/mL] | MIC SA 2012 ([3]; Staphylococcus aureus 2012 (VISA), numeric, comparison) [µg/mL] | MIC ([3]; numeric, comparison) [µg/mL] | MIC E FC 101 ([6]; Enterococcus faecalis 101 (ATCC 29212), numeric, comparison) [µg/mL] | MIC ([6]; numeric, comparison) [µg/mL] | MIC ([7]; numeric, comparison) [µg/mL] | MIC ([8]; numeric, comparison) [µg/mL]
CCCCCOCCNC(=O)Oc1cc(O)c2c(c1)[C@@H](C(=O)NC1C3CC4CC(C3)CC1C4)NC(=O)[C@H]1NC(=O)[C@H](NC(=O)[C@@H]3NC(=O)[C@H](CC(N)=O)NC(=O)[C@H](NC(=O)[C@@H](CC(C)C)NC)[C@H](O)c4ccc(c(Cl)c4)Oc4cc3cc(c4O[C@@H]3O[C@H](CO)[C@@H](O)[C@H](O)[C@H]3O[C@H]3C[C@](C)(N)[C@H](O)[C@H](C)O3)Oc3ccc(cc3Cl)[C@H]1O)c1ccc(O)c-2c1 (stereo partly drawn) [Compound 340] | 0.01 to 0.5 (≈ 0.00575 to 0.287 µM) | 0.01 to 0.5 (≈ 0.00575 to 0.287 µM) | 0.5 to 1 (≈ 0.287 to 0.575 µM) | 0.01 to 0.5 (≈ 0.00575 to 0.287 µM) | 0.01 to 0.5 (≈ 0.00575 to 0.287 µM) | 0.01 to 0.5 (≈ 0.00575 to 0.287 µM) | 8 to 16 (≈ 4.6 to 9.2 µM) | 0.01 to 0.5 (≈ 0.00575 to 0.287 µM) | 2 to 4 (≈ 1.15 to 2.3 µM) | 0.01 to 0.5 (≈ 0.00575 to 0.287 µM) | 0.01 to 0.5 (≈ 0.00575 to 0.287 µM) |  |  |  |  |  | 
CN[C@H](CC(C)C)C(=O)N[C@H]1C(=O)N[C@@H](CC(N)=O)C(=O)N[C@H]2C(=O)N[C@H]3C(=O)N[C@H](C(=O)N[C@H](C(=O)O)c4cc(O)cc(O)c4-c4cc3ccc4O)[C@H](O)c3ccc(c(Cl)c3)Oc3cc2cc(c3O[C@@H]2O[C@H](CO)[C@@H](O)[C@H](O)[C@H]2O[C@H]2C[C@](C)(N)[C@H](O)[C@H](C)O2)Oc2ccc(cc2Cl)[C@H]1O [Vancomycin, vancomycin, reference compound] | 1 (≈ 0.69 µM) | 1 (≈ 0.69 µM) |  | 2 (≈ 1.38 µM) | 2 (≈ 1.38 µM) |  |  | 1 (≈ 0.69 µM) |  | 0.25 (≈ 0.173 µM) | 0.5 (≈ 0.345 µM) | 8 (≈ 5.52 µM) | 16 (≈ 11 µM) | 4 (≈ 2.76 µM) | 2 (≈ 1.38 µM) | > 64 | > 64
